# Test system: Beet Armyworm (Spodoptera exigua)
# Experiment: Bioassay on Beet Armyworm (BAW), 128-well diet tray assay
# Format: in vivo
# Settings: percent mortality of second instar larvae, 50 μg/cm^2 on artificial diet, five to seven days, 25° C.; Table 3
# Protocol: Certain molecules disclosed in this document were tested against BAW and CEW and CL using procedures described in the following examples. In the reporting of the results, the “BAW & CEW & CL Rating Table” was used (See Table Section).
# Bioassays on BAW (Spodoptera exigua)
# Bioassays on BAW were conducted using a 128-well diet tray assay. one to five second instar BAW larvae were placed in each well (3 mL) of the diet tray that had been previously filled with 1 mL of artificial diet to which 50 μg/cm^2 of the test compound (dissolved in 50 μL of 90:10 acetone-water mixture) had been applied (to each of eight wells) and then allowed to dry. Trays were covered with a clear self-adhesive cover, and held at 25° C., 14:10 light-dark for five to seven days. Percent mortality was recorded for the larvae in each well; activity in the eight wells was then averaged. The results are indicated in the table entitled “Table 3: Assay Results” (See Table Section).
row,Structure (SMILES),BAW Rating
1,COc1cc(/C=C/C(c2cc(Cl)c(F)c(Cl)c2)C(F)(F)F)ccc1C(=O)NC1CSC1 (stereo not shown) [AC71],A (50-100)
2,CCc1cc(/C=C/C(c2cc(Cl)c(F)c(Cl)c2)C(F)(F)F)ccc1C(=O)NCc1ccc(Cl)nc1 (stereo not shown) [AC72],A (50-100)
3,O=C(NCc1ccc(C(F)(F)F)nc1)c1ccc(/C=C/C(c2cc(Cl)c(Cl)c(Cl)c2)C(F)(F)F)cc1Br (stereo not shown) [AC75],A (50-100)
4,Cc1cc(/C=C/C(c2cc(Cl)c(F)c(Cl)c2)C(F)(F)F)ccc1C(=O)NCc1cc(Cl)ccn1 (stereo not shown) [AC77],A (50-100)
5,Cc1cc(/C=C/C(c2cc(Cl)c(Cl)c(Cl)c2)C(F)(F)F)ccc1C(=O)NCC(=O)NCC(F)(F)F (stereo not shown) [AC78],A (50-100)
6,"O=C(CNC(=O)c1ccc(/C=C/C(c2cc(Cl)c(F)c(Cl)c2)C(F)(F)F)cc1Br)NCC(F)(F)F (stereo not shown) [AC79, (E)-2-Bromo-4-(3-(3,5-dichloro-4-fluorophenyl)-4,4,4-trifluorobut-1-en-1-yl)-N-(2-oxo-2-((2,2,2-trifluoroethyl)amino)ethyl)benzamide]",A (50-100)
7,CCc1cc(/C=C/C(c2cc(Cl)c(F)c(Cl)c2)C(F)(F)F)ccc1C(=O)NCC(=O)NCC(F)(F)F (stereo not shown) [AC80],A (50-100)
8,Cc1cc(/C=C/C(c2cc(Cl)cc(Cl)c2)C(F)(F)F)ccc1C(=O)NCC(=O)NC1CS(=O)(=O)C1 (stereo not shown) [AC81],A (50-100)
9,"O=C(NC1CS(=O)(=O)C1)c1ccc(/C=C/C(c2cc(Cl)cc(Cl)c2)C(F)(F)F)cc1F (stereo not shown) [AC83, (E)-4-(3-(3,5-Dichlorophenyl)-4,4,4-trifluorobut-1-en-1-yl)-N-(1,1-dioxidothietan-3-yl)-2-fluorobenzamide]",A (50-100)
10,O=C(NC1CS(=O)(=O)C1)c1ccc(/C=C/C(c2cc(Cl)c(F)c(Cl)c2)C(F)(F)F)cc1F (stereo not shown) [AC84],A (50-100)
11,COc1cc(/C=C/C(c2cc(Cl)c(F)c(Cl)c2)C(F)(F)F)ccc1C(=O)NC1CS(=O)(=O)C1 (stereo not shown) [AC85],A (50-100)
12,CCc1cc(/C=C/C(c2cc(Cl)c(F)c(Cl)c2)C(F)(F)F)ccc1C(=O)NC1CS(=O)(=O)C1 (stereo not shown) [AC86],A (50-100)
13,O=C(NC1C[S+]([O-])C1)c1ccc(/C=C/C(c2cc(Cl)c(F)c(Cl)c2)C(F)(F)F)cc1F (stereo not shown) [AC87],A (50-100)
14,"Cc1cc(/C=C/C(c2cc(Cl)cc(Cl)c2)C(F)(F)F)ccc1C(=O)NCc1nnc(C2CC2)o1 (stereo not shown) [AC89, (E)-N-((5-Cyclopropyl-1,3,4-oxadiazol-2-yl)methyl)-4-(3-(3,5-dichlorophenyl)-4,4,4-trifluorobut-1-en-1-yl)-2-methylbenzamide]",A (50-100)
15,"FC(F)(F)CNC(=S)CNC(=S)c1ccc(/C=C/C(c2cc(Cl)c(Cl)c(Cl)c2)C(F)(F)F)cc1Br (stereo not shown) [AC90, (E)-2-Bromo-N-(2-thioxo-2-((2,2,2-trifluoroethyl)amino)ethyl)-4-(4,4,4-trifluoro-3-(3,4,5-trichlorophenyl)but-1-en-1-yl)benzothioamide]",A (50-100)
16,"O=C(CNC(=S)c1ccc(/C=C/C(c2cc(Cl)c(Cl)c(Cl)c2)C(F)(F)F)cc1Br)NCC(F)(F)F (stereo not shown) [AC91, (E)-2-(2-Bromo-4-(4,4,4-trifluoro-3-(3,4,5-trichlorophenyl)but-1-en-1-yl)phenylthioamido)-N-(2,2,2-trifluoroethyl)acetamide]",A (50-100)
17,"O=C(NCC(=S)NCC(F)(F)F)c1ccc(/C=C/C(c2cc(Cl)c(Cl)c(Cl)c2)C(F)(F)F)cc1Br (stereo not shown) [AC92, (E)-2-Bromo-N-(2-thioxo-2-((2,2,2-trifluoroethyl)amino)ethyl)-4-(4,4,4-trifluoro-3-(3,4,5-trichlorophenyl)but-1-en-1-yl)benzamide]",A (50-100)
18,Cc1cc(/C=C\C(c2cc(Cl)cc(Cl)c2)C(F)(F)F)ccc1C(=O)NCC(=O)NC1CC1 (stereo not shown) [AC93],A (50-100)
19,"O=C(CNC(=O)c1ccc(/C=C\C(c2cc(Cl)c(Cl)c(Cl)c2)C(F)(F)F)cc1Br)NCC(F)(F)F (stereo not shown) [AC95, (Z)-2-Bromo-N-(2-oxo-2-((2,2,2-trifluoroethyl)amino)ethyl)-4-(4,4,4-trifluoro-3-(3,4,5-trichlorophenyl)but-1-en-1-yl)benzamide]",A (50-100)
20,O=C(CNC(=O)c1ccc(/C=C/C(c2cc(Cl)c(F)c(Cl)c2)C(F)(F)F)cc1[N+](=O)[O-])NCC(F)(F)F (stereo not shown) [AC98],A (50-100)
21,O=C(CNC(=O)c1ccc(/C=C/C(c2ccc(F)c(Cl)c2)C(F)(F)F)cc1Br)NCC(F)(F)F (stereo not shown) [AC99],A (50-100)
22,"CC(=O)N1CCC(NC(=O)c2ccc(/C=C/C(c3cc(Cl)c(Cl)c(Cl)c3)C(F)(F)F)cc2Br)CC1 (stereo not shown) [AC103, (E)-N-(1-Acetylpiperidin-4-yl)-2-bromo-4-(4,4,4-trifluoro-3-(3,4,5-trichlorophenyl)but-1-en-1-yl)benzamide]",A (50-100)
23,"O=C(NC1CCN(C(=O)CC(F)(F)F)CC1)c1ccc(/C=C/C(c2cc(Cl)c(Cl)c(Cl)c2)C(F)(F)F)cc1Br (stereo not shown) [AC104, (E)-2-Bromo-4-(4,4,4-trifluoro-3-(3,4,5-trichlorophenyl)but-1-en-1-yl)-N-(1-(3,3,3-trifluoropropanoyl)piperidin-4-yl)benzamide]",A (50-100)

row,Structure (SMILES),BAW Rating
1,"CN1CCC(NC(=O)c2ccc(/C=C/C(c3cc(Cl)c(Cl)c(Cl)c3)C(F)(F)F)cc2Br)CC1 (stereo not shown) [AC106, (E)-2-Bromo-N-(1-methylpiperidin-4-yl)-4-(4,4,4-trifluoro-3-(3,4,5-trichlorophenyl)but-1-en-1-yl)benzamide]",A (50-100)
2,N#CCN1CCC(NC(=O)c2ccc(/C=C/C(c3cc(Cl)c(Cl)c(Cl)c3)C(F)(F)F)cc2Br)CC1 (stereo not shown) [AC107],B (More than 0-Less than 50)
3,"O=C(NC1CCN(C2COC2)CC1)c1ccc(/C=C/C(c2cc(Cl)c(Cl)c(Cl)c2)C(F)(F)F)cc1Br (stereo not shown) [AC108, (E)-2-Bromo-N-(1-(oxetan-3-yl)piperidin-4-yl)-4-(4,4,4-trifluoro-3-(3,4,5-trichlorophenyl)but-1-en-1-yl)benzamide]",B (More than 0-Less than 50)
4,CONC(=O)CNC(=O)c1ccc(/C=C/C(c2cc(Cl)c(Cl)c(Cl)c2)C(F)(F)F)cc1Br (stereo not shown) [AC110],A (50-100)
5,C=CCNC(=O)CNC(=O)c1ccc(/C=C/C(c2cc(Cl)c(Cl)c(Cl)c2)C(F)(F)F)cc1Br (stereo not shown) [AC111],A (50-100)
6,O=C(NCCc1ccc(Cl)nc1)c1ccc(/C=C/C(c2cc(Cl)c(Cl)c(Cl)c2)C(F)(F)F)cc1Br (stereo not shown) [AC113],B (More than 0-Less than 50)
7,"O=C(NC1CCNCC1)c1ccc(/C=C/C(c2cc(Cl)c(Cl)c(Cl)c2)C(F)(F)F)cc1Br (stereo not shown) [AC114, (E)-2-Bromo-N-(piperidin-4-yl)-4-(4,4,4-trifluoro-3-(3,4,5-trichlorophenyl)but-1-en-1-yl)benzamide]",A (50-100)
8,"Cc1cc(/C=C/C(c2cc(Cl)cc(Cl)c2)C(F)(F)F)ccc1C(=S)NCc1ccc(Cl)nc1 (stereo not shown) [AC115, (E)-N-((6-Chloropyridin-3-yl)methyl)-4-(3-(3,5-dichlorophenyl)-4,4,4-trifluorobut-1-en-1-yl)-2-methylbenzothioamide]",A (50-100)
9,Cc1cc(/C=C/C(c2cc(Cl)cc(Cl)c2)C(F)(F)F)ccc1C(=O)N(C)Cc1ccc(Cl)nc1 (stereo not shown) [AC117],A (50-100)
10,Cc1cc(/C=C/C(c2cc(Cl)cc(Cl)c2)C(F)(F)F)ccc1C(=O)NCC1CCCO1 (stereo not shown) [AC118],A (50-100)
11,O=C(CC(F)(F)F)NC1CCCc2cc(/C=C/C(c3cc(Cl)c(Cl)c(Cl)c3)C(F)(F)F)ccc21 (stereo not shown) [BC5],A (50-100)
12,O=C(NC1CCc2cc(/C=C/C(c3cc(Cl)c(Cl)c(Cl)c3)C(F)(F)F)ccc21)C1CC1 (stereo not shown) [BC6],A (50-100)
13,O=C(NC1CCCc2cc(/C=C/C(c3cc(Cl)c(Cl)c(Cl)c3)C(F)(F)F)ccc21)C1CC1 (stereo not shown) [BC7],A (50-100)
14,O=C(CC(F)(F)F)NC1CCc2cc(/C=C/C(c3cc(Cl)c(F)c(Cl)c3)C(F)(F)F)ccc21 (stereo not shown) [BC8],A (50-100)
15,O=C(Cc1ccc(Cl)nc1)NC1CCc2cc(/C=C/C(c3cc(Cl)c(F)c(Cl)c3)C(F)(F)F)ccc21 (stereo not shown) [BC9],A (50-100)
16,"Fc1c(Cl)cc(C(/C=C/c2ccc3c(c2)CCC3NCCC(F)(F)F)C(F)(F)F)cc1Cl (stereo not shown) [BC10, (E)-5-(3-(3,5-Dichloro-4-fluorophenyl)-4,4,4-trifluorobut-1-en-1-yl)-N-(3,3,3-trifluoropropyl)-2,3-dihydro-1H-inden-1-amine]",A (50-100)
17,"O=C(CC(F)(F)F)NCC(=O)n1ccc2cc(/C=C/C(c3cc(Cl)c(F)c(Cl)c3)C(F)(F)F)ccc21 (stereo not shown) [BC13, (E)-N-(2-(5-(3-(3,5-Dichloro-4-fluorophenyl)-4,4,4-trifluorobut-1-en-1-yl)-1H-indol-1-yl)-2-oxoethyl)-3,3,3-trifluoropropanamide]",A (50-100)
18,"O=C(Cn1ncc2cc(/C=C/C(c3cc(Cl)c(F)c(Cl)c3)C(F)(F)F)ccc2c1=O)NCC(F)(F)F (stereo not shown) [BC14, (E)-2-(6-(3-(3,5-Dichloro-4-fluorophenyl)-4,4,4-trifluorobut-1-en-1-yl)-1-oxophthalazin-2(1H)-yl)-N-(2,2,2-trifluoroethyl)acetamide]",A (50-100)
19,O=C(NCc1ccc(/C=C/C(c2cc(Cl)cc(Cl)c2)C(F)(F)F)cc1)C1CC1 (stereo not shown) [CC2],A (50-100)
20,O=C(CC(F)(F)F)NCc1ccc(/C=C/C(c2cc(Cl)cc(Cl)c2)C(F)(F)F)cc1 (stereo not shown) [CC3],A (50-100)
21,CCC(=O)NCc1ccc(/C=C/C(c2cc(Cl)cc(Cl)c2)C(F)(F)F)cc1 (stereo not shown) [CC4],A (50-100)
22,O=C(NCc1ccc(/C=C/C(c2cc(Cl)c(Cl)c(Cl)c2)C(F)(F)F)cc1)C1CC1 (stereo not shown) [CC5],A (50-100)
23,O=C(CC(F)(F)F)NCc1ccc(/C=C/C(c2cc(Cl)c(Cl)c(Cl)c2)C(F)(F)F)cc1 (stereo not shown) [CC6],A (50-100)
